Experiment in all cases: relative viability (nuclei count vs DMSO), 5 days (fraction); higher = more cells survive
Compound in the assay “Selisistat + Lapatinib”: C1CC(C2=C(C1)C3=C(N2)C=CC(=C3)Cl)C(=O)N [Selisistat] + CS(=O)(=O)CCNCc1ccc(-c2ccc3ncnc(Nc4ccc(OCc5cccc(F)c5)c(Cl)c4)c3c2)o1 [Lapatinib] (partner 2 µM)
In outline:
(§1)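 Relative viability is defined as nuclei in treated wells over nuclei in vehicle wells. Duplicate plates were run and medians reported. Lung cancer cell lines in 1536-well plates were dosed by pin tool one day after seeding, with one drug or with a fixed anchor-drug dose plus five library-drug doses (not always all listed) in √10 steps, and nuclei were counted after 5 days.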

Compound in the assay “Selisistat + Dasatinib”: C1CC(C2=C(C1)C3=C(N2)C=CC(=C3)Cl)C(=O)N [Selisistat] + Cc1nc(Nc2ncc(C(=O)Nc3c(C)cccc3Cl)s2)cc(N2CCN(CCO)CC2)n1 [Dasatinib] (partner 0.075 µM)
In outline:
as §1

Compound in the assay “Serdemetan + Crizotinib”: c1ccc2c(CCNc3ccc(Nc4ccncc4)cc3)c[nH]c2c1 [Serdemetan] + C[C@@H](Oc1cc(-c2cnn(C3CCNCC3)c2)cnc1N)c1c(Cl)ccc(F)c1Cl [Crizotinib] (partner 1 µM)
Put shortly: as §1

Compound in the assay “Serdemetan + Olaparib”: c1ccc2c(CCNc3ccc(Nc4ccncc4)cc3)c[nH]c2c1 [Serdemetan] + O=C(c1cc(Cc2n[nH]c(=O)c3ccccc23)ccc1F)N1CCN(C(=O)C2CC2)CC1 [Olaparib] (partner 8 µM)
In outline:
as §1

Turning to 201T, the relative viability with Selisistat + Lapatinib (first compound 0.4 µM) came to 1.11; with Selisistat + Lapatinib (first compound 1.265 µM) it was 1.02; with Selisistat + Lapatinib (first compound 4 µM), 1.02; with Selisistat + Lapatinib (first compound 12.65 µM), 1.03; in the assay with Selisistat + Lapatinib (first compound 40 µM), 1.08; with Selisistat + Dasatinib (first compound 0.4 µM) it was 0.588. The relative viability with Selisistat + Dasatinib (first compound 1.265 µM) was determined as 0.551; with Selisistat + Dasatinib (first compound 4 µM), 0.581; with Selisistat + Dasatinib (first compound 12.65 µM), 0.528; with Selisistat + Dasatinib (first compound 40 µM), 0.534; with Serdemetan + Crizotinib (first compound 0.04 µM), 1.05; with Serdemetan + Crizotinib (first compound 0.1265 µM), 1.03. Besides, the relative viability with Serdemetan + Crizotinib (first compound 0.4 µM) came to 0.948; with Serdemetan + Crizotinib (first compound 1.265 µM), 0.927; with Serdemetan + Crizotinib (first compound 4 µM) it was 0.879; with Serdemetan + Olaparib (first compound 0.04 µM) it was 0.821; with Serdemetan + Olaparib (first compound 0.1265 µM) it was 0.8; with Serdemetan + Olaparib (first compound 0.4 µM), 0.822. Also, the relative viability came out at 0.543 with Serdemetan + Olaparib (first compound 1.265 µM) and 0.492 with Serdemetan + Olaparib (first compound 4 µM).

On to A549, for which the relative viability is 1.05 in the assay with Selisistat + Lapatinib (first compound 0.4 µM); 0.937 in the assay with Selisistat + Lapatinib (first compound 1.265 µM); 1.12 with Selisistat + Lapatinib (first compound 4 µM); 0.974 in the assay with Selisistat + Lapatinib (first compound 12.65 µM); 0.95 in the assay with Selisistat + Lapatinib (first compound 40 µM); 0.807 with Serdemetan + Crizotinib (first compound 0.04 µM). Further, the relative viability with Serdemetan + Crizotinib (first compound 0.1265 µM) turned out to be 0.757; with Serdemetan + Crizotinib (first compound 0.4 µM) it was 0.764; with Serdemetan + Crizotinib (first compound 1.265 µM), 0.578; in the assay with Serdemetan + Crizotinib (first compound 4 µM) it was 0.306; with Serdemetan + Olaparib (first compound 0.04 µM), 0.208; in the assay with Serdemetan + Olaparib (first compound 0.1265 µM), 0.382. Also, the results for the relative viability in the assay with Serdemetan + Olaparib (first compound 0.4 µM), in the assay with Serdemetan + Olaparib (first compound 1.265 µM) and in the assay with Serdemetan + Olaparib (first compound 4 µM) were 0.269, 0.141 and 0.147, respectively.

Turning to A-427, the relative viability was found to be 1.03 in the assay with Selisistat + Lapatinib (first compound 0.4 µM); 1.02 in the assay with Selisistat + Lapatinib (first compound 1.265 µM); 0.98 in the assay with Selisistat + Lapatinib (first compound 4 µM); 0.879 with Selisistat + Lapatinib (first compound 12.65 µM); 1.12 in the assay with Selisistat + Lapatinib (first compound 40 µM); 0.744 with Selisistat + Dasatinib (first compound 0.4 µM). The relative viability was 0.657 with Selisistat + Dasatinib (first compound 1.265 µM); 0.584 with Selisistat + Dasatinib (first compound 4 µM); 0.752 with Selisistat + Dasatinib (first compound 12.65 µM); 0.772 in the assay with Selisistat + Dasatinib (first compound 40 µM); 0.919 in the assay with Serdemetan + Crizotinib (first compound 0.04 µM); 0.789 with Serdemetan + Crizotinib (first compound 0.1265 µM). Further, the relative viability in the assay with Serdemetan + Crizotinib (first compound 0.4 µM) turned out to be 0.662; with Serdemetan + Crizotinib (first compound 1.265 µM) it was 0.287; with Serdemetan + Crizotinib (first compound 4 µM), 0.404; with Serdemetan + Olaparib (first compound 0.04 µM), 0.693; with Serdemetan + Olaparib (first compound 0.1265 µM), 0.639; in the assay with Serdemetan + Olaparib (first compound 0.4 µM), 0.711. Besides, the relative viability with Serdemetan + Olaparib (first compound 1.265 µM) amounted to 0.66; with Serdemetan + Olaparib (first compound 4 µM), 0.643.

For ABC-1, the relative viability with Selisistat + Lapatinib (first compound 0.4 µM) was 1.03; in the assay with Selisistat + Lapatinib (first compound 1.265 µM), 1.12; with Selisistat + Lapatinib (first compound 4 µM), 1.19; with Selisistat + Lapatinib (first compound 12.65 µM), 0.924; with Selisistat + Lapatinib (first compound 40 µM) it was 1.24; in the assay with Selisistat + Dasatinib (first compound 0.4 µM), 0.553. Further, the relative viability came out at 0.469 in the assay with Selisistat + Dasatinib (first compound 1.265 µM); 0.589 with Selisistat + Dasatinib (first compound 4 µM); 0.588 with Selisistat + Dasatinib (first compound 12.65 µM); 0.509 in the assay with Selisistat + Dasatinib (first compound 40 µM); 0.926 with Serdemetan + Crizotinib (first compound 0.04 µM); 1 in the assay with Serdemetan + Crizotinib (first compound 0.1265 µM). Further, the relative viability is 0.817 with Serdemetan + Crizotinib (first compound 0.4 µM); 0.69 in the assay with Serdemetan + Crizotinib (first compound 1.265 µM); 0.475 with Serdemetan + Crizotinib (first compound 4 µM); 0.627 with Serdemetan + Olaparib (first compound 0.04 µM); 0.689 in the assay with Serdemetan + Olaparib (first compound 0.1265 µM); 0.982 with Serdemetan + Olaparib (first compound 0.4 µM). Further, the relative viability with Serdemetan + Olaparib (first compound 1.265 µM) amounted to 0.702; in the assay with Serdemetan + Olaparib (first compound 4 µM), 0.573.

On to Calu-6, for which the relative viability in the assay with Selisistat + Lapatinib (first compound 0.4 µM) was found to be 1.06; with Selisistat + Lapatinib (first compound 1.265 µM), 1.09; with Selisistat + Lapatinib (first compound 4 µM), 1.02; in the assay with Selisistat + Lapatinib (first compound 12.65 µM), 0.949; in the assay with Selisistat + Lapatinib (first compound 40 µM), 0.895; with Serdemetan + Crizotinib (first compound 0.04 µM), 0.832. In addition, the relative viability was 0.718 with Serdemetan + Crizotinib (first compound 0.1265 µM); 0.712 with Serdemetan + Crizotinib (first compound 0.4 µM); 0.566 with Serdemetan + Crizotinib (first compound 1.265 µM); 0.527 with Serdemetan + Crizotinib (first compound 4 µM); 0.561 in the assay with Serdemetan + Olaparib (first compound 0.04 µM); 0.612 with Serdemetan + Olaparib (first compound 0.1265 µM). Besides, the relative viability was 0.555 with Serdemetan + Olaparib (first compound 0.4 µM), 0.412 with Serdemetan + Olaparib (first compound 1.265 µM) and 0.362 with Serdemetan + Olaparib (first compound 4 µM).

On to ChaGo-K-1, for which the relative viability was 0.562 with Selisistat + Dasatinib (first compound 0.4 µM); 0.551 with Selisistat + Dasatinib (first compound 1.265 µM); 0.563 in the assay with Selisistat + Dasatinib (first compound 4 µM); 0.539 in the assay with Selisistat + Dasatinib (first compound 12.65 µM); 0.592 with Selisistat + Dasatinib (first compound 40 µM); 1.11 with Serdemetan + Crizotinib (first compound 0.1265 µM). Besides, the relative viability with Serdemetan + Crizotinib (first compound 0.4 µM) was 1.11; with Serdemetan + Crizotinib (first compound 1.265 µM), 0.714; with Serdemetan + Crizotinib (first compound 4 µM), 0.43; with Serdemetan + Olaparib (first compound 0.04 µM) it was 0.401; with Serdemetan + Olaparib (first compound 0.1265 µM), 0.269; in the assay with Serdemetan + Olaparib (first compound 0.4 µM) it was 0.258. Also, the relative viability was 0.168 in the assay with Serdemetan + Olaparib (first compound 1.265 µM) and 0.257 with Serdemetan + Olaparib (first compound 4 µM).

For EBC-1, the relative viability in the assay with Selisistat + Lapatinib (first compound 0.4 µM) was 0.256; with Selisistat + Lapatinib (first compound 1.265 µM) it was 0.208; in the assay with Selisistat + Lapatinib (first compound 4 µM), 0.224; with Selisistat + Lapatinib (first compound 12.65 µM) it was 0.243; in the assay with Selisistat + Lapatinib (first compound 40 µM), 0.244; with Serdemetan + Crizotinib (first compound 0.04 µM), 0.19. The relative viability amounted to 0.214 in the assay with Serdemetan + Crizotinib (first compound 0.1265 µM); 0.188 with Serdemetan + Crizotinib (first compound 0.4 µM); 0.19 with Serdemetan + Crizotinib (first compound 1.265 µM); 0.181 with Serdemetan + Crizotinib (first compound 4 µM); 0.694 with Serdemetan + Olaparib (first compound 0.04 µM); 0.669 in the assay with Serdemetan + Olaparib (first compound 0.1265 µM). Further, the relative viability in the assay with Serdemetan + Olaparib (first compound 0.4 µM) turned out to be 0.703; in the assay with Serdemetan + Olaparib (first compound 1.265 µM) it was 0.594; in the assay with Serdemetan + Olaparib (first compound 4 µM) it was 0.547.

With HCC-44, the relative viability with Selisistat + Lapatinib (first compound 0.4 µM) was determined as 0.983; with Selisistat + Lapatinib (first compound 1.265 µM) it was 1.16; with Selisistat + Lapatinib (first compound 4 µM) it was 1.01; with Selisistat + Lapatinib (first compound 12.65 µM), 1.02; with Selisistat + Lapatinib (first compound 40 µM) it was 1.13; in the assay with Serdemetan + Crizotinib (first compound 0.04 µM), 0.766. For the same cell line, the relative viability with Serdemetan + Crizotinib (first compound 0.1265 µM) is 0.828; with Serdemetan + Crizotinib (first compound 0.4 µM), 0.71; with Serdemetan + Crizotinib (first compound 1.265 µM), 0.54; in the assay with Serdemetan + Crizotinib (first compound 4 µM), 0.599; in the assay with Serdemetan + Olaparib (first compound 0.04 µM), 0.94; with Serdemetan + Olaparib (first compound 0.1265 µM), 0.943. Besides, the relative viability with Serdemetan + Olaparib (first compound 0.4 µM) amounted to 0.979; with Serdemetan + Olaparib (first compound 1.265 µM), 0.851; in the assay with Serdemetan + Olaparib (first compound 4 µM), 0.815.

For the cell line IA-LM, the relative viability came to 0.723 with Selisistat + Lapatinib (first compound 0.4 µM); 0.931 in the assay with Selisistat + Lapatinib (first compound 1.265 µM); 0.817 with Selisistat + Lapatinib (first compound 4 µM); 0.894 in the assay with Selisistat + Lapatinib (first compound 40 µM); 0.898 with Serdemetan + Crizotinib (first compound 0.04 µM); 0.767 with Serdemetan + Crizotinib (first compound 0.1265 µM). The relative viability with Serdemetan + Crizotinib (first compound 0.4 µM) worked out at 0.813; with Serdemetan + Crizotinib (first compound 1.265 µM), 0.465; with Serdemetan + Crizotinib (first compound 4 µM), 0.357; with Serdemetan + Olaparib (first compound 0.04 µM) it was 0.883; with Serdemetan + Olaparib (first compound 0.1265 µM) it was 0.886; with Serdemetan + Olaparib (first compound 0.4 µM), 0.839. The relative viability amounted to 0.392 with Serdemetan + Olaparib (first compound 1.265 µM) and 0.396 in the assay with Serdemetan + Olaparib (first compound 4 µM).

For the origin of these results see the supplement of paper PMC10307832.
